# In paper PMC11843658 (Journal of Enzyme Inhibition and Medicinal Chemistry, 2025):
# How the values were obtained:
# PC3 cells = assay: CCK8 assay, PC3 prostate cancer cells; assay type: cell-based; conditions: Homo sapiens, PC-3, 10 μM, 48 h, read-out: cell viability rate
# Description: (§1) C42B, PC3, Caco-2, HepG2, MCF7, HL-60, 8505 C, OVCAR-3, and A549 were cultured to screen the broad-spectrum antiproliferative activity of compound 14. For above cell lines, three thousand cells per well were seeded in the 96-well plate and treated by compound 14 for 48 or 72 h at different concentrations (0, 5, 10, and 20 μM). In addition, HepG2, HEP3B, HUH6, and HUH7 were cultured to screen its antiproliferative activity against liver cancer cell lines. For these liver cancer cell lines, two thousand cells per well were seeded in the 96-well plate and treated by compound 14 for 48 h at different concentrations (0, 0.625, 1.25, 2.5, and 5 μM). Then, 10 μl of CCK8 was added into each well and cells were incubated in a humidified atmosphere of 5% CO2 at 37 °C for 4 h. The 96-well plate was measured with a microplate reader (Bio-Tek, San Diego, CA) at a wavelength of 450 nm to calculate IC50 values.
# OVCAR-3 cells = assay: CCK8 assay, OVCAR-3 ovarian cancer cells; assay type: cell-based; conditions: Homo sapiens, 10 μM, 48 h, read-out: cell viability rate
# Description: as §1
# HEP3B cells = assay: CCK8 assay, HEP3B liver cancer cells; assay type: cell-based; conditions: Homo sapiens, CCK8, 48 h, 0-5 μM, read-out: IC50, antiproliferative activity
# Description: as §1
# LSD1 = LSD1 (Homo sapiens, UniProt O60341); assay: Dialysis assay to evaluate the reversibility; assay type: biochemical; conditions: dialysis against HEPES buffer, GSK-LSD1 as irreversible reference
# Description: A mixture of compound 14 and the recombinant LSD1 was incubated for 60 min at 37 °C. Then, the system was dialysed against 50 mmol/l HEPES buffer at 37 °C for 12 h. Finally, the HEPES buffer was replaced and the system was incubated for 12 h at 37 °C. In the dialysis experiment, an irreversible inhibitor GSK-LSD1 was purchased as the reference drug (Innochem, Beijing, China).
# HepG2 cells = assay: Xenograft study, HepG2 cells in nude mice; assay type: in vivo, BALB/c nude mice; conditions: 60 mg/kg by gavage every day for 21 days
# Description: Tumorigenesis in nude mice could stimulate the growth process of human tumours in the body, and could be used to develop and evaluate the effectiveness and safety of anti-cancer candidates. Therefore, xenograft studies in nude mice were performed to evaluate anticancer effects of compound 14. Animals were treated according to the protocols established by the ethics committee of The Fourth Clinical College of Xinxiang Medical University. The in vivo experiments were carried out in accordance with the approved guidelines and approved by the ethics committee of The Fourth Clinical College of Xinxiang Medical University. The number of ethics approvals is XMU-2024–01-03. All authors have adhered to the ARRIVE guidelines (https://arriveguidelines.org/). BALB/c nude mice were purchased from Beijing Huafukang Biotechnology Co., LTD (Beijing, China), and fifteen mice were used in this study (aged 6–7 weeks and weighing 20–30 g). Before the animal experiments, all nude mice were given a week to adjust to the clean, hygienic and specific-pathogen-free environment. All nude mice were taken care of instainless steel cages with a constant temperature of 60% humidity, 25 °C and a 12/12 light/dark cycle. Nude mice were fed with refreshing water and nourishing food everyday.
# Then, nude mice were anaesthetised with 2% isoflurane and 0.3 l/min of oxygen by the small animal anaesthesia machine (Beijing Yi Zejia Technology Co., LTD, Beijing, China). 3 × 10^5 human liver cancer HepG2 cells were subcutaneously injected in the right armpit of mice. Until the volume of tumours reached 60–100 mm^3, all mice were randomly divided into three groups and each group had five nude mice. An amount of 60 mg/kg of compound 14, 10 mg/kg of seclidemstat and water as the control group were given by gavage every day for 21 days. Weight of mice and tumour volume were measured every 3 d. All nude mice in this xenograft studies were performed euthanizing procedures using a carbon dioxide euthanasia chamber (Shanghai Yuyan Instruments Co., Ltd, Shanghai, China). The flow rate of carbon dioxide was adjusted at 20% of the volume of the euthanasia chamber per minute. Once nude mice were unconscious, the flow rate was increased to 100% of the euthanasia chamber volume per minute. Death was confirmed by immobility, non-breathing and pupil enlargement. Tumours form BALB/c nude mice were isolated and weighed.
structure (smiles),measurement,setting,value
"COc1ccc(CN(C(=O)CCN2C(=O)CCCC2=O)c2cc(OC)c(OC)c(OC)c2)cc1 [Compound 14, 3-(2,6-dioxopiperidin-1-yl)-N-(4-methoxybenzyl)-N-(3,4,5-trimethoxyphenyl)propanamide]",viability at 10 µM,PC3 cells,52%
same,viability at 10 µM,OVCAR-3 cells,80.7%
same,IC50,HEP3B cells,2090 nM
same,reversibility of LSD1 inhibition,LSD1,inhibits LSD1 in a reversible manner
same,growth of subcutaneous tumours,HepG2 cells; nude mice bearing HepG2 cells,inhibited the growth of subcutaneous tumours
same,tumour growth inhibition rate,"HepG2 cells; tumour weight, nude mice bearing HepG2 cells",50.3%
same,tumour volume,HepG2 cells; vs control group,significantly lower than that in control group
same,tumour weight,HepG2 cells; vs control group,lower than that of control group
